Results reported in paper PMC11279468, “Exploring a New Generation of Pyrimidine and Pyridine Derivatives as Anti-Influenza Agents Targeting the Polymerase PA–PB1 Subunits Interaction” (Pharmaceutics, 2024).
Where two headings read alike, the source gives them in different places.

Assays:
[1] = system: Influenza virus strain A/PR/8/34 (H1N1); test: microbe, parasite or virus in culture; details: unidentified influenza virus, MDCK, read-out: EC50 (PRA)
[2] = Cytotoxicity assay (MTT) in MDCK cells; details: dog, MDCK cells
Method: (§1) The cytotoxicity of compounds was tested in MDCK cells using the 3-(4,5-dimethylthiazol-2-yl)-2,5-diphenyl tetrazolium bromide (MTT) method, as previously reported [32]. Briefly, MDCK cells (seeded at a density of 2 × 10^4 per well) were grown in 96-well plates for 24 h and then treated with serial dilutions of test compounds, or DMSO as a control, in DMEM supplemented with 10% FBS. After incubation at 37 °C for 48 h, 5 mg/mL of MTT (Sigma, Tokyo, Japan) in PBS was added into each well and incubated at 37 °C for a further 4 h. Successively, a solubilization solution was added to lyse the cells and incubated overnight at 37 °C. Finally, optical density was read at the wavelength of 570 nm on a microtiter plate reader (MultiSkan FC, ThermoFisher Scientific).

[3] = system: HEK 293T cells; details: cited from earlier work
[4] = target: T1, PA–PB1 interaction (6His-PA(239–716) / GST-PB1(1–25)) (Influenza A virus, UniProt P03433)
[5] = system: Influenza virus strain A/PR/8/34 (H1N1); details: plaque reduction assay in MDCK cells; cited from earlier work
[6] = system: MDCK cells; details: cited from earlier work
[7] = in vitro; details: dog
Method: as §1

[8] = target: T1, PA–PB1 interaction (6His-PA(239–716) / GST-PB1(1–25)); test: biochemical; assay type: binding
[9] = system: MDCK cells
Method: as §1

[10] = system: Influenza virus strain A/PR/8/34 (H1N1)
[11] = read-out: IC50 (ELISA PA–PB1); ELISA PA–PB1 interaction; cited from earlier work

SMILES | EC50 [1] [µM] | EC50 [5] [µM] | CC50 [6] [µM] | CC50 at 48 h [7] [µM] | IC50 [8] [µM] | melting point [°C] | also measured
NC(=O)c1ncn(C2O[C@H](CO)[C@@H](O)[C@H]2O)n1 (stereo partly drawn) [RBV, 1-D-ribofuranosyl-1,2,4-triazole-3-carboxamide, reference compound] | 12.8 ± 3.2 | – | – | – | – | – | CC50 at 48 h [2]: > 250 µM
Cc1cccc(NC(=O)CSc2nc(-c3ccc(C(F)(F)F)cc3)cc(-c3ccc(C(F)(F)F)cc3)n2)c1 [Compound 1c] | – | 26.5 ± 4.3 | > 250 | – | – | – | CC50 [3]: > 250 µM; IC50 [4, 11]: > 200 µM
Cc1cccc(NC(=O)CSc2nc(C(=O)Nc3ccccc3)cc(-c3ccccc3)n2)c1 [Compound 2l, 2-{[2-oxo-2-(m-tolylamino)ethyl]thio}-N,6-diphenylpyrimidine-4-carboxamide] | 13 ± 5.5 | – | – | 46.3 ± 10.4 | 125 ± 37 | 181 to 182 | cytotoxicity (in words) [9]: high cytotoxicity
Cc1cccc(NC(=O)CSc2nc(-c3ccccc3)cc(-c3ccc(F)cc3)n2)c1 [Compound 2d, 2-{[4-(4-Fluorophenyl)-6-phenylpyrimidin-2-yl]thio}-N-(m-tolyl)acetamide] | 2.8 ± 0.6 | – | – | > 250 | 90.1 ± 30.2 | 186 to 190 | antiviral activity relative to RBV [10]: almost five-fold more active than RBV
Cc1cccc(NC(=O)CSc2nc(-c3ccccc3)cc(-c3ccccc3)n2)c1 [Compound 1d] | – | 3.5 ± 0.5 | 10.1 ± 1.7 | – | – | – | CC50 [3]: 22.3 µM; IC50 [4, 11]: 165 ± 18 µM
Cc1cccc(NC(=O)CSc2nc(Sc3ccccc3)cc(-c3ccc(F)cc3)n2)c1 [Compound 2k] | 16.4 ± 1.9 | – | – | 48.2 ± 2.5 | 159 ± 29 | 146 to 147 | cytotoxicity (in words) [9]: high cytotoxicity
Cc1cccc(NC(=O)CSc2cc(-c3ccccc3)cc(-c3ccccc3)n2)c1 [Compound 1e] | – | 7.3 ± 1.3 | > 250 | – | – | – | IC50 [4, 11]: 52.6 ± 9 µM
Cc1cccc(NC(=O)CSc2nc(Sc3ccccc3)cc(-c3ccc(Cl)cc3)n2)c1 [Compound 2j, 2-{[4-(4-Chlorophenyl)-6-(phenylthio)pyrimidin-2-yl]thio}-N-(m-tolyl)acetamide] | 32.9 ± 4.1 | – | – | 16 ± 4.2 | > 200 | 150 to 154 | cytotoxicity (in words) [9]: high cytotoxicity
Cc1ccc(-c2cc(-c3ccccc3)nc(SCC(=O)Nc3cccc(C)c3)c2C#N)cc1 [Compound 1a] | – | – | – | – | – | – | IC50 ([4]; ELISA PA–PB1 interaction; read-out: IC50 (ELISA PA–PB1); cited from earlier work): 80 µM
Cc1cccc(NC(=O)CSc2nc(Sc3ccccc3)cc(-c3ccccc3)n2)c1 [Compound 2i, 2-{[4-Phenyl-6-(phenylthio)pyrimidin-2-yl]thio}-N-(m-tolyl)acetamide] | 4.6 ± 0.3 | – | – | 73.3 ± 9.1 | 28.8 ± 1.5 | 127 to 128 | –
Cc1cccc(NC(=O)CSc2cc(-c3ccc(Cl)cc3)cc(Sc3ccccc3)n2)c1 [Compound 2n, 2-{[4-(4-chlorophenyl)-6-(phenylthio)pyridin-2-yl]thio}-N-(m-tolyl)acetamide] | 62.9 ± 13.2 | – | – | > 250 | 87 ± 15.7 | 93 to 95 | –
CCC(C)C(NC(=O)CSc1nc(-c2ccccc2)cc(-c2ccc(C)cc2)c1C#N)C(=O)OC (stereo not shown) [Compound 1b] | – | 39 ± 2 | > 250 | – | – | – | CC50 [3]: 229 µM; IC50 ([4]; read-out: IC50 (ELISA PA–PB1); ELISA-based PA–PB1 interaction assay; cited from earlier work): 36 ± 3 µM
